From patent US6787672B2, “Substituted chalcones as therapeutic compounds” (Cancer Research Technology Limited, priority 2000, dated 2004)
Like-named read-outs stand apart in the source and are kept apart here.

Experiments:
[1] = test system: breast cancer cell line MCF-7; experiment: MTT assay, tumour cell growth inhibition, breast MCF-7; assay type: cell-based, human; conditions: for IC50: Homo sapiens, MCF7, Breast MCF-7, MTT, 96 h, read-out: IC50, dose required for 50% inhibition of tumour cell growth
Excerpt: (§1) The human tumour cell lines were the breast cancer cell line MCF-7, the colon cancer cell line HCT-116, and the lung cancer cell line A-549. The MTT assay was used, which exploits the ability of living cells to metabolise the water soluble tetrazolium salt 3-[4,5-dimethylthiazol-2yl-2,5-diphenyl tetrazolium bromide (MTT) into a water insoluble formazan precipitate (Carmichael et al, 1987). The purple precipitate can then be dissolved in an organic solvent and the optical density determined as a measure of cell survival. Compounds were tested concurrently for a true comparison.
(§2) The compound under study was dissolved in DMSO to yield a 10 mM stock solution. […] Cells were seeded into sterile flat-bottomed 96-well plates at a known initial seeding density (MCF-7 1.5×10E3, HCT-116 1×10E3, A549 2×10E3). The cells were plated in RPMI 1640 medium supplemented with 10% heat-inactivated Foetal Calf Serum solution. The plates were then incubated for 24 h at 37° C., 5% CO2 to allow cell adherence. 20 μl of the appropriate drug dilution (from serial dilutions in medium from 10 mM stock) was added to the wells (to give a final well volume of 200 μl). Plates were returned to the incubator for 96 h, and then 50 μl of MTT was added to each well. After a further 4 h incubation, the medium and any unconverted MTT was aspirated from the wells and the formazan precipitate dissolved by the addition of 100 μl of DMSO and several minutes agitation. The absorbance at A450 was then recorded on a plate reader, and the results expressed as a % survival of DMSO treated controls.

[2] = test system: colon cancer cell line HCT-116; experiment: MTT assay, tumour cell growth inhibition, colon HCT-116; assay type: cell-based, human; conditions: for IC50: Homo sapiens, Colon HCT-116, MTT, 96 h
Excerpt: as §1, §2

[3] = test system: lung cancer cell line A-549; experiment: MTT assay, tumour cell growth inhibition, lung A-549; assay type: cell-based, human; conditions: for IC50: Homo sapiens, A549, Lung A-549, MTT, 96 h, read-out: IC50, dose required for 50% inhibition of tumour cell growth
Excerpt: as §1, §2

[4] = target: T1, CYP1B1 enzyme (Homo sapiens, UniProt Q16678); experiment: Metabolism by microsomal preparation of human tumour tissue expressing CYP1B1, HPLC; assay type: in vitro ADME; conditions: human tumour microsomes, NADPH, 1 h, 37° C., pH 7.6
T1 construct: A microsomal preparation of human tumour tissue expressing the CYP1B1 enzyme was prepared; from tissue; host or cells: human tumour tissue (microsomal preparation)
T1 sequence (Q16678 1-543): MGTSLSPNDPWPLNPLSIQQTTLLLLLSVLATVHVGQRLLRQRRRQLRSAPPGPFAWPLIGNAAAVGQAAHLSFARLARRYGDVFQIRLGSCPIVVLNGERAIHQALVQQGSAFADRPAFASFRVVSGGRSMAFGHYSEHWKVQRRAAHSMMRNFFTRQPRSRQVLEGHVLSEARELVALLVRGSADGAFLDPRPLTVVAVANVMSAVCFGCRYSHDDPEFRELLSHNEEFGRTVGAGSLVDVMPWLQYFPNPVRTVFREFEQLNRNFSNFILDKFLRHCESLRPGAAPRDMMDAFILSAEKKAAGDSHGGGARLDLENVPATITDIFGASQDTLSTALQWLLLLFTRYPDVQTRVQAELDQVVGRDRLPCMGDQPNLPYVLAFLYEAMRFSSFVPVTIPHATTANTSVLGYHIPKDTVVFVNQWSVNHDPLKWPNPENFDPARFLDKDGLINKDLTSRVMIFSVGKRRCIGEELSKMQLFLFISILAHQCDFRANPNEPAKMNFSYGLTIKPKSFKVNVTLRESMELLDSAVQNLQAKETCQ
Experimental: A microsomal preparation of human tumour tissue expressing the CYP1B1 enzyme was prepared essentially as described by the method of Barrie et al., 1989. The experiment was carried out at 37° C., under yellow light. An array of 1.5 ml centrifuge tubes were set up in a water bath shaker-under aerobic conditions. To each tube was then added 500 μl of pH 7.6 buffer (0.1 M NaK2PO4), followed by NADPH (5 μl of a 25 mM stock solution). The microsomal preparation (80 μl) was then added and the tubes preincubated for 5 min at 37° C.
The prodrug substrate, compound II, was then added (10 μl of a 5 mM stock solution) and incubated for 1 h at 37° C. After 1 h the tubes were transferred to an ice/water cooling bath (0° C.). The tubes were then centrifuged at 15,000 rpm for 30 min. A sample of the supernatant (100 μl) was then taken and analysed by HPLC. HPLC conditions: Spherisorb C18 (25 cm×4.6 mm id), used without guard column. Flow rate 1 ml/min. Eluent 75% 0.1 M KH2PO4 and 25% acetonitrile.
The hydroxylated metabolite, compound III, was detected by HPLC, and confirmed by comparison with the authentic hydroxylated synthetic compound III.

[5] = test system: splenocytes; experiment: Splenocyte anti-proliferation assay (Con A stimulated, tritiated thymidine); assay type: cell-based; conditions: FIG. 1, triplicate
Excerpt: The anti-inflammatory effects of Compound II (DMU-120) were examined (in triplicate) using a splenocyte anti-proliferation assay.
The splenocyte anti-proliferation assay has been developed to identify compounds that have useful anti-inflammatory properties for the treatment of auto-inflammatory diseases such as rheumatoid arthritis. See, for example, Yamashita et al., 1994. This well known assay is described in detail in, for example, Mosmann, 1983. In this assay, splenocyte proliferation is stimulated by the inflammatory response inducer conconavilin A (Con A). Cell proliferation is monitored by detecting radiation (counts per minute, cpm) from a radio label (tritiated thymidine) which is incorporated only into proliferating cells.
The compound was assayed as a solution in dimethylsulfoxide (DMSO) as solvent. The solvent control is also shown for comparison. Other controls are also shown. “ConA” denotes the signal (cpm) detected for a control where cell proliferation is stimulated by ConA in the absence of a test compound. “Med” denotes the signal (cpm) detected for the cell culture medium alone. “Bkg” denotes the background radiation level (cpm).

[6] = read-out: IC50, dose required for 50% inhibition of tumour cell growth

| Compound | IC50 [1] | Selectivity Factor (Prodrug/Metabolite) ([1]; Breast MCF-7, IC50 Compound II / IC50 Compound III) | Selectivity Factor (Prodrug/Metabolite) ([2]; Colon HCT-116, IC50 Compound II / IC50 Compound III) | IC50 [2, 6] | IC50 [3] | Selectivity Factor (Prodrug/Metabolite) ([3]; Lung A-549, IC50 Compound II / IC50 Compound III) | Metabolic conversion by CYP1B1 (aromatic hydroxylation) [4] | Concentration showing anti-inflammatory effects on splenocyte proliferation [5] | melting point | IC50 ([2]; read-out: IC50 against colon tumour cell line HCT-116, restated in nM) |
| --- | --- | --- | --- | --- | --- | --- | --- | --- | --- | --- |
| COc1cc(OC)cc(C(=O)/C=C/c2ccc(OC)cc2OC)c1 [Compound IV, (E)-1-(2,4-dimethoxyphenyl)-3-(3,5-dimethoxyphenyl)prop-1-en-3-one] | 0.1 nM | – | – | – | – | – | – | – | – | – |
| COc1ccc(/C=C/C(=O)c2cc(OC)cc(OC)c2)cc1 [Compound II, (E)-1-(4-Methoxyphenyl)-3-(3,5-dimethoxyphenyl)prop-1-en-3-one] | 690 nM | 1100 | 15000 | 1200 nM | 6600 nM | 80 | converted to the hydroxylated metabolite compound III | less than 10 μM | 87 to 88 °C | – |
| COc1cc(OC)cc(C(=O)/C=C/c2ccc(OC)c(O)c2)c1 [Compound III, (E)-1-(3-Hydroxy-4-methoxyphenyl)-3-(3,5-dimethoxyphenyl)prop-1-en-3-one] | 0.65 nM | – | – | 0.08 nM | 80 nM | – | – | – | 129 °C | 0.08 nM |
